Reference: patent publication US11771738B2 (Zoetis Services LLC, priority 2018, dated 2023)
Where two headings read alike, the source gives them in different places.

Key:
Format in all cases: cell-based
[1] = system: microfilariae of Dirofilaria immitis; assay: Dirofilaria immitis, Microfilaria (DiMf) In Vitro Assay; conditions: Dirofilaria immitis, 72 h, read-out: DiMf MED, Minimum Effective Dose, D. immitis microfilariae motility, in vitro
D. immitis L4 larvae = assay: Dirofilaria immitis, L4 Stage (DiL4) In Vitro Assay; conditions: for minimal effective concentration: Dirofilaria immitis, 72 h, read-out: DiL4 MED, Minimum Effective Dose, D. immitis L4 larvae motility, in vitro; for DiMf/DiL4: larval stage selectivity, ratio of DiMf MED to DiL4 MED
[2] = system: third stage larvae of Haemonchus contortus; assay: Haemonchus contortus, Larvae Stage 3 (HcL3) In Vitro Assay; conditions: Haemonchus contortus, 96 h
[3] = read-out: HcL3 MED, Minimum Effective Dose, H. contortus third stage larvae, approximately 96 hours
[4] = read-out: HcL3 MED, Haemonchus contortus third stage larvae in vitro, class mark appended to the Ex # in Table 3
[5] = read-out: HcL3 MED, approximately 96 hours incubation, multiple-resistant field isolate

Structure (SMILES) | minimal effective concentration [1] [µM] | minimal effective concentration (D. immitis L4 larvae) [µM] | DiMf/DiL4 (D. immitis L4 larvae) | minimal effective concentration [2, 3] [µM] | minimal effective concentration [2, 4] [µM] | minimal effective concentration [2, 5] [µM] | minimal effective concentration ([2]; read-out: HcL3 MED (symbol after Ex#), approximately 96 hours incubation, multiple-resistant field isolate) [µM]
COc1cc(C)c(Cc2ccc(C[C@H]3OC(=O)[C@H](CC(C)C)N(C)C(=O)[C@@H](C)OC(=O)[C@H](CC(C)C)N(C)C(=O)[C@@H](Cc4ccc(Cc5cnc(OC)cc5C)cc4)OC(=O)[C@H](CC(C)C)N(C)C(=O)[C@@H](C)OC(=O)[C@H](CC(C)C)N(C)C3=O)cc2)cn1 [Example 3-133, (3S,6R,9S,12R,15S,18R,21S,24R)-3,9,15,21-tetraisobutyl-6,18-bis(4-((6-methoxy-4-methylpyridin-3-yl)methyl)benzyl)-4,10,12,16,22,24-hexamethyl-1,7,13,19-tetraoxa-4,10,16,22-tetraazacyclotetracosan-2,5,8,11,14,17,20,23-octaone] | 0.02 | 0.0003 | 66.7 | 57 |  |  | 
Cc1cnccc1Cc1ccc(C[C@H]2OC(=O)[C@H](CC(C)C)N(C)C(=O)[C@@H](C)OC(=O)[C@H](CC(C)C)N(C)C(=O)[C@@H](Cc3ccc(Cc4ccncc4F)cc3)OC(=O)[C@H](CC(C)C)N(C)C(=O)[C@@H](C)OC(=O)[C@H](CC(C)C)N(C)C2=O)cc1 [Example 3-309, (3S,6R,9S,12R,15S,18R,21S,24R)-6-(4-((3-fluoropyridin-4-yl)methyl)benzyl)-3,9,15,21-tetraisobutyl-4,10,12,16,22,24-hexamethyl-18-(4-((3-methylpyridin-4-yl)methyl)benzyl)-1,7,13,19-tetraoxa-4,10,16,22-tetraazacyclotetracosan-2,5,8,11,14,17,20,23-octaone] | 0.003 | 0.00055 | 5.5 | 3.3 | 1 to 3.3 |  | 
COc1ncccc1Cc1ccc(C[C@H]2OC(=O)[C@H](CC(C)C)N(C)C(=O)[C@@H](C)OC(=O)[C@H](CC(C)C)N(C)C(=O)[C@@H](Cc3ccc(Cc4cccnc4OC)cc3)OC(=O)[C@H](CC(C)C)N(C)C(=O)[C@@H](C)OC(=O)[C@H](CC(C)C)N(C)C2=O)cc1 [Example 3-31, (3S,6R,9S,12R,15S,18R,21S,24R)-3,9,15,21-tetraisobutyl-6,18-bis(4-((2-methoxypyridin-3-yl)methyl)benzyl)-4,10,12,16,22,24-hexamethyl-1,7,13,19-tetraoxa-4,10,16,22-tetraazacyclotetracosan-2,5,8,11,14,17,20,23-octaone] | 0.005 | 0.0002 | 25 | 2.4 | 1 to 3.3 |  | 
CC(C)C[C@H]1C(=O)O[C@H](Cc2ccc(Cc3cccnc3Cl)cc2)C(=O)N(C)[C@@H](CC(C)C)C(=O)O[C@H](C)C(=O)N(C)[C@@H](CC(C)C)C(=O)O[C@H](Cc2ccc(Cc3cccnc3Cl)cc2)C(=O)N(C)[C@@H](CC(C)C)C(=O)O[C@H](C)C(=O)N1C [Example 3-319, (3S,6R,9S,12R,15S,18R,21S,24R)-6,18-bis(4-((2-chloropyridin-3-yl)methyl)benzyl)-3,9,15,21-tetraisobutyl-4,10,12,16,22,24-hexamethyl-1,7,13,19-tetraoxa-4,10,16,22-tetraazacyclotetracosan-2,5,8,11,14,17,20,23-octaone] | 0.00173 | 5.5e-05 | 31.5 | 0.55 | < 1 | ≤ 1 | 
CC(C)C[C@H]1C(=O)O[C@H](Cc2ccc(Cc3sccc3Br)cc2)C(=O)N(C)[C@@H](CC(C)C)C(=O)O[C@H](C)C(=O)N(C)[C@@H](CC(C)C)C(=O)O[C@H](Cc2ccc(Cc3sccc3Br)cc2)C(=O)N(C)[C@@H](CC(C)C)C(=O)O[C@H](C)C(=O)N1C [Example 3-125, (3S,6R,9S,12R,15S,18R,21S,24R)-6,18-bis(4-((3-bromothiophen-2-yl)methyl)benzyl)-3,9,15,21-tetraisobutyl-4,10,12,16,22,24-hexamethyl-1,7,13,19-tetraoxa-4,10,16,22-tetraazacyclotetracosan-2,5,8,11,14,17,20,23-octaone] | 0.03 | < 0.0002 | >150 | > 100 |  |  | 
CC(C)C[C@H]1C(=O)O[C@H](Cc2ccc(Cc3cnccc3C#N)cc2)C(=O)N(C)[C@@H](CC(C)C)C(=O)O[C@H](C)C(=O)N(C)[C@@H](CC(C)C)C(=O)O[C@H](Cc2ccc(Cc3cnccc3C#N)cc2)C(=O)N(C)[C@@H](CC(C)C)C(=O)O[C@H](C)C(=O)N1C [Example 3-307, 3,3′-(((((2R,5S,8R,11S,14R,17S,20R,23S)-5,11,17,23-tetraisobutyl-4,8,10,16,20,22-hexamethyl-3,6,9,12,15,18,21,24-octaoxo-1,7,13,19-tetraoxa-4,10,16,22-tetraazacyclotetracosane-2,14-diyl)bis(methylene))bis(4,1-phenylene))bis(methylene))diisonicotinonitrile] | 0.0003 | 0.0001 | 3 | 1 | < 1 | ≤ 1 | 
CC(C)C[C@H]1C(=O)O[C@H](Cc2ccc(Cc3sccc3Cl)cc2)C(=O)N(C)[C@@H](CC(C)C)C(=O)O[C@H](C)C(=O)N(C)[C@@H](CC(C)C)C(=O)O[C@H](Cc2ccccc2)C(=O)N(C)[C@@H](CC(C)C)C(=O)O[C@H](C)C(=O)N1C [Example 4-75, (3S,6R,9S,12R,15S,18R,21S,24R)-6-benzyl-18-(4-((3-chlorothiophen-2-yl)methyl)benzyl)-3,9,15,21-tetraisobutyl-4,10,12,16,22,24-hexamethyl-1,7,13,19-tetraoxa-4,10,16,22-tetraazacyclotetracosan-2,5,8,11,14,17,20,23-octaone] | 0.01 | 0.0005 | 20 | 1 |  | ≤ 1 | < 1
CC(C)C[C@H]1C(=O)O[C@H](Cc2ccc(Cc3scnc3Cl)cc2)C(=O)N(C)[C@@H](CC(C)C)C(=O)O[C@H](C)C(=O)N(C)[C@@H](CC(C)C)C(=O)O[C@H](Cc2ccc(Cc3scnc3Cl)cc2)C(=O)N(C)[C@@H](CC(C)C)C(=O)O[C@H](C)C(=O)N1C [Example 3-112, (3S,6R,9S,12R,15S,18R,21S,24R)-6,18-bis(4-((4-chlorothiazol-5-yl)methyl)benzyl)-3,9,15,21-tetraisobutyl-4,10,12,16,22,24-hexamethyl-1,7,13,19-tetraoxa-4,10,16,22-tetraazacyclotetracosan-2,5,8,11,14,17,20,23-octaone] | 0.001 | 3e-05 | 33.3 | 1 | < 1 | ≤ 1 | 
CC(C)C[C@H]1C(=O)O[C@H](Cc2ccc(Cc3cccnc3F)cc2)C(=O)N(C)[C@@H](CC(C)C)C(=O)O[C@H](C)C(=O)N(C)[C@@H](CC(C)C)C(=O)O[C@H](Cc2ccc(Cc3cccnc3F)cc2)C(=O)N(C)[C@@H](CC(C)C)C(=O)O[C@H](C)C(=O)N1C [Example 3-323, (3S,6R,9S,12R,15S,18R,21S,24R)-6,18-bis(4-((2-fluoropyridin-3-yl)methyl)benzyl)-3,9,15,21-tetraisobutyl-4,10,12,16,22,24-hexamethyl-1,7,13,19-tetraoxa-4,10,16,22-tetraazacyclotetracosan-2,5,8,11,14,17,20,23-octaone] | 0.001 | 0.0001 | 10 | 0.3 | < 1 | ≤ 1 | 
CC(C)C[C@H]1C(=O)O[C@H](Cc2ccc(Cc3cncnc3C3CC3)cc2)C(=O)N(C)[C@@H](CC(C)C)C(=O)O[C@H](C)C(=O)N(C)[C@@H](CC(C)C)C(=O)O[C@H](Cc2ccc(Cc3cncnc3C3CC3)cc2)C(=O)N(C)[C@@H](CC(C)C)C(=O)O[C@H](C)C(=O)N1C [Example 3-289, (3S,6R,9S,12R,15S,18R,21S,24R)-6,18-bis(4-((4-cyclopropylpyrimidin-5-yl)methyl)benzyl)-3,9,15,21-tetraisobutyl-4,10,12,16,22,24-hexamethyl-1,7,13,19-tetraoxa-4,10,16,22-tetraazacyclotetracosan-2,5,8,11,14,17,20,23-octaone] | 0.003 | 0.0005 | 6 | 3.3 | 1 to 3.3 |  | 
CC(C)C[C@H]1C(=O)O[C@H](Cc2ccc(Cc3cccnc3Br)cc2)C(=O)N(C)[C@@H](CC(C)C)C(=O)O[C@H](C)C(=O)N(C)[C@@H](CC(C)C)C(=O)O[C@H](Cc2ccc(Cc3cccnc3Br)cc2)C(=O)N(C)[C@@H](CC(C)C)C(=O)O[C@H](C)C(=O)N1C [Example 3-329, (3S,6R,9S,12R,15S,18R,21S,24R)-6,18-bis(4-((2-bromopyridin-3-yl)methyl)benzyl)-3,9,15,21-tetraisobutyl-4,10,12,16,22,24-hexamethyl-1,7,13,19-tetraoxa-4,10,16,22-tetraazacyclotetracosan-2,5,8,11,14,17,20,23-octaone] | 0.001 | 0.0001 | 10 |  | < 1 | ≤ 1 | 
